How the values were obtained:
[1] = test system: NAD glycohydrolase (NADase); settings: at 100 μM; cited from earlier work
[2] = test system: histone deacetylases (HDACs); settings: at 100 μM; cited from earlier work
[3] = target: T1, SIRT1 (Mus musculus, UniProt Q923E4); experiment: Rodent PET/CT blocking studies (in vivo specificity); parameters: from tissue; host or cells: brain and other organs of living C57BL/6 mice; species or system C57BL/6 mice; settings: for specific binding in brain: at 60 min
T1 sequence (Q923E4 1-737): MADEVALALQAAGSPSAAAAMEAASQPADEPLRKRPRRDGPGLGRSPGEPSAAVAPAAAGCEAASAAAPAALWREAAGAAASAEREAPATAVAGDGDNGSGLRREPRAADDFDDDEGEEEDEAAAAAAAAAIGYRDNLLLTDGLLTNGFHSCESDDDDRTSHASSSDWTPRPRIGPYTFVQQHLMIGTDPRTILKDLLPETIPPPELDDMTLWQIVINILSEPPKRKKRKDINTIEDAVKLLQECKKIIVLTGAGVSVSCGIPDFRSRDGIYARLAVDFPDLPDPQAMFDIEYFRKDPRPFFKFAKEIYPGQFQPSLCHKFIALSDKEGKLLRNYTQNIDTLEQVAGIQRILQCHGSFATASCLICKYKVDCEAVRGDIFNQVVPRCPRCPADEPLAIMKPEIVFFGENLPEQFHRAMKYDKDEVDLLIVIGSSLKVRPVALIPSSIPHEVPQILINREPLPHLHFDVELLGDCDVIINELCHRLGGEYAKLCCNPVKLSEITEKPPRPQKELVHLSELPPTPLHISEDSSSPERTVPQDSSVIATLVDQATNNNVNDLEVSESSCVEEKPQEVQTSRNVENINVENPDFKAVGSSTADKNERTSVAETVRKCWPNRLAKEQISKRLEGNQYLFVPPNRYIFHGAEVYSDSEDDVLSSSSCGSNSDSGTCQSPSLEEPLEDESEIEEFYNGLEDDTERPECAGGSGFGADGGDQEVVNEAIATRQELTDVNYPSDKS
Excerpt: (§1) C57BL/6 mice were used for baseline and blocking studies (25-30 g, male; n=6 for baseline, n=5 for blocking with the pre-treatment of compound 8, and n=6 for blocking with the pre-treatment of Ex-527), and B6SJL wild-type and 5×FAD transgenic mice (20-25 g, male; n=4 for wild-type mice and n=4 for 5×FAD transgenic mice) were included to evaluate the [^11C]8 in a model of AD. All animals were anesthetized with inhalational isoflurane at 3% in a carrier of 2 L/min medical oxygen, and maintained at 2% isoflurane for the duration of the scan. The mice were fixed on the bed of a Triumph Trimodality PET/CT scanner (Gamma Medica, Northridge, CA) in the prone position, and injected with [^11C]8 (150-200 μL, ˜200 μCi) via a lateral tail vein catheterization at the start of PET acquisition. For blocking studies, compound 8 (5 mg/kg, iv) or Ex-527 (5 mg/kg, iv) was injected at 10 min prior to [^11C]8 injection. Dynamic PET acquisition lasted for 60 min and was followed by CT for anatomic coregistration. PET data were reconstructed using a 3D-MLEM method resulting in a full width at half-maximum resolution of 1 mm. Reconstructed images were exported from the scanner in DICOM format along with an anatomic CT. […] Volumes of interests, including the whole brain, striatum, cortex, thalamus, midbrain, cerebellum and brain stem were placed referencing the MRI template software. […] The time-activity curves were expressed as the percentage of injected dose per gram (% ID/g).

[4] = NHP arterial plasma analysis; settings: baboon
Procedure: (§2) Atropine 0.05 mg/kg was used intramuscularly to prevent excessive secretion (15 or 30 min of ketamine and xylazine). Anesthesia was induced with intramuscular xylazine (0.5-2.0 mg/kg) and ketamine (10 mg/kg). […] PET/MR images were acquired in a Biograph mMR scanner (Siemens Healthcare, Erlangen, Germany), and PET compatible 8-channel coil arrays for NHP brain imaging with a PET resolution of ˜5 mm at isocenter. Dynamic PET image acquisition was initiated followed by administration of [^11C]8 in a homogeneous solution of 10% ethanol and 90% isotonic saline. A high-resolution structural MRI using [sequence] sequence was acquired about 30 min post-radiotracer administration for anatomical co-registration. Dynamic PET data were acquired and stored in list mode. After corrected for attenuation, scatter, and decay, the PET images were reconstructed using a 3D-OSEM method. […] Volumes of interests were placed referencing the MRI template. Time-activity curves were exported in terms of decay corrected activity at specified time points with gradually increasing intervals. The time-activity curves were expressed as SUV.

[5] = test system: SIRT1; experiment: NHP PET/MR brain imaging; settings: baboon
Procedure: as §2

[6] = target: T1, SIRT1; experiment: PET/CT imaging in 5×FAD transgenic mice (AD model); assay type: in vivo; parameters: from tissue; host or cells: brain of living 5×FAD transgenic mice; settings: at 3 min
Excerpt: C57BL/6 mice were used for baseline and blocking studies (25-30 g, male; n=6 for baseline, n=5 for blocking with the pre-treatment of compound 8, and n=6 for blocking with the pre-treatment of Ex-527), and B6SJL wild-type and 5×FAD transgenic mice (20-25 g, male; n=4 for wild-type mice and n=4 for 5×FAD transgenic mice) were included to evaluate the [^11C]8 in a model of AD. All animals were anesthetized with inhalational isoflurane at 3% in a carrier of 2 L/min medical oxygen, and maintained at 2% isoflurane for the duration of the scan. The mice were fixed on the bed of a Triumph Trimodality PET/CT scanner (Gamma Medica, Northridge, CA) in the prone position, and injected with [^11C]8 (150-200 μL, ˜200 μCi) via a lateral tail vein catheterization at the start of PET acquisition. For blocking studies, compound 8 (5 mg/kg, iv) or Ex-527 (5 mg/kg, iv) was injected at 10 min prior to [^11C]8 injection. Dynamic PET acquisition lasted for 60 min and was followed by CT for anatomic coregistration. PET data were reconstructed using a 3D-MLEM method resulting in a full width at half-maximum resolution of 1 mm. Reconstructed images were exported from the scanner in DICOM format along with an anatomic CT. […] The time-activity curves were expressed as the percentage of injected dose per gram (% ID/g).

[7] = target: T1, SIRT1; experiment: Rodent PET/CT baseline imaging and whole body biodistribution; assay type: in vivo; parameters: from tissue; host or cells: brain and other organs of living C57BL/6 mice; settings: C57BL/6 mice
Excerpt: as §1

[8] = baseline whole body biodistribution

Row | Compound | inhibitory effect on NAD glycohydrolase (NADase) [1] | inhibitory effect on class VII histone deacetylases (HDACs) [2] | brain uptake plateau ([3]; at 5 min, pre-treatment with compound 8 (5 mg/kg, iv)) | specific binding in brain ([3]; blocking by pre-treatment with Ex-527 (5 mg/kg, iv) 10 min prior) | specific binding in brain ([3]; self-blocking, pre-treatment with compound 8 (5 mg/kg, iv) 10 min prior) | specific binding in blood, heart and lung ([3]; both blocking experiments) | specific binding in liver and kidney ([3]; both blocking experiments) | arterial plasma radioactivity remaining (of the total radioactivity) ([4]; after 10 min) | parent compound in plasma (stability in plasma over time) ([4]; at 30 min) | uptake in midbrain [5] | uptake in thalamus [5] | peak whole brain uptake ([5]; intravenous) | time to peak concentration in whole brain ([5]; intravenous) | brain uptake plateau [6] | radioactivity in liver and kidney [7, 8] | uptake in blood [7, 8] | BBB penetration ([7]; baseline) | time to reach plateau of brain time course ([7]; baseline) | maximum radioactivity accumulation in the whole brain ([7]; baseline, iv tail vein) | washout ratio % ID/g 5 min / % ID/g 60 min ([7]; baseline, brain)
1 | NC(=O)C1CCCc2c1[nH]c1ccc(Cl)cc21 (centres unmarked) [Ex-527] | no inhibitory effect | no inhibitory effect |  |  |  |  |  |  |  |  |  |  |  |  |  |  |  |  |  | 
2 | [11CH3]c1ccc2[nH]c3c(c2c1)CCCC3C(N)=O (centres unmarked) [[^11C]8, 6-[^11C]methyl-2,3,4,9-tetrahydro-1H-carbazole-1-carboxamide] |  |  | 6.0 % ID/g | 62% | 68% | abundant specific binding | No specific binding | less than 10% | more than 30% | 4.1 SUV | 3.6 SUV | greater than 2.9 SUV | approximately 4 min | 6.3 % ID/g | > 10 % ID/g | relatively low uptake | penetrated the BBB | around 5 min | 7.5 % ID/g | 1.01

— patent US20240174608A1, “COMPOUNDS FOR BRAIN IMAGING” (The General Hospital Corporation, priority 2021, published 2024)
